These results are taken from patent publication US20140330152A1, “PROVIDING EVIDENCE WHETHER AN INT[…] IS CORRECTLY POSITIONED” (priority 2011, published 2014).

For the compound `O=C([O-])O.[Na+]` [bicarbonate (as NaHCO3), sodium bicarbonate], for the setting “administered extravascularly”, the “amount of exhaled carbon dioxide on extravascular administration” value is reported as “does not substantially increase”. Further, the “clearance: amount of exhaled carbon dioxide returns to normal after administration is stopped” value (after intravenous administration is stopped) is “within the third exhalation”.
